biological target: complex II (succinate:quinone reductase, SQR) (Echinococcus multilocularis, UniProt A0A1Z4EAW8+A0A1Z4EAX0+A0A1Z4EAX1); experiment: Succinate:quinone reductase (SQR) activity (complex II) in protoscoleces mitochondrial fraction; type: biochemical; settings: 1-aldehyde (D7) vs 1-acetyl (D6)
Description: Cyst tissues containing E. multilocularis (Nemuro strain) protoscoleces isolated from infected hispid cotton rats, Sigmodon hispidus, were used. The tissues were shredded through a metal mesh (0.5 mm diameter). Then, the tissues were repeatedly suspended and washed with physiological saline in a tall beaker to obtain protoscoleces by exploiting the buoyancy difference between protoscoleces and other tissue ([26]). The obtained protoscoleces were homogenized with a motor-driven homogenizer to prepare the mitochondrial fraction. The homogenate was diluted with mitochondrial preparation buffer (210 mM mannitol, 10 mM sucrose, 1 mM disodium EDTA, and 50 mM Tris-HCl [pH 7.5]) supplemented with 10 mM sodium malonate to 5 times the volume of the original protoscolex homogenate, and then centrifuged at 800 × g for 10 min (4°C) to remove cell debris and nuclei. The supernatant was then centrifuged at 8,000 × g for 10 min (4°C) to obtain the mitochondrial pellet. Next, the pellet was resuspended in mitochondrial preparation buffer (without malonate) and centrifuged at 8,000 × g for 10 min (4°C). The enriched mitochondrial fraction was finally suspended in approximately 0.5 to 1.0 mL of mitochondrial preparation buffer without malonate and frozen at −50°C. The mitochondrial fraction from A. suum was prepared essentially as described previously ([27], [28]).
NADH:quinone reductase activity (complex I), succinate:quinone reductase activity (complex II), and succinate:cytochrome c reductase activity (complexes II to III) were measured using a UV-3000 spectrophotometer (Shimadzu, Kyoto, Japan) as described previously ([4], [6]). Briefly, all enzyme assays using mitochondrial fractions were performed in 0.5- or 1.0-mL reaction mixtures at 25°C. A freeze/thaw process was performed before the assay to ensure that the mitochondrial membrane was permeable to the solutes. The final mitochondrial protein concentration was 50 μg/mL. NADH:quinone reductase activity was measured in 50 mM potassium phosphate buffer (pH 7.4) containing 2 mM potassium cyanide, KCN (Sigma, St. Louis, MO, USA), and 60 μM decylubiquinone (Sigma). The activity assay was started by the addition of 50 μM NADH (Fujifilm-Wako, Tokyo, Japan) and recorded as the rate of NADH consumption as monitored at 340 nm (ε = 6.2 mM^−1 cm^−1). The reagents used in the SQR activity assay were mixed with the reaction buffer containing 50 mM potassium phosphate (pH 7.4) and 0.1% (wt/vol) sucrose monolaurate (DOJINDO, Kumamoto, Japan). SQR activity was determined by monitoring the change in absorbance of quinone at 278 nm (ε = 15 mM^−1 cm^−1) in the presence of 60 μM decylubiquinone, 2 mM KCN, and the inhibitor. The reaction was initiated by the addition of 10 mM disodium succinate to the mixture. NADH:cytochrome c activity (complex I to III) was measured in the reaction buffer (30 mM potassium phosphate, 1 mM MgCl2, pH 7.5) containing 2 mM KCN, 50 μM cytochrome c (Nacalai Tesque, Kyoto, Japan), and the inhibitor. The assay was performed after the addition of 100 mM malonate to block complex II activity. The reaction was started by adding 50 μM NADH to the mixture, and the enzyme activity was determined by monitoring the change in absorbance of cytochrome c at 550 nm (ε = 19 mM^−1 cm^−1). IC50 values of AF and its derivatives against the specific activities of mitochondrial respiratory enzymes in protoscoleces were determined. The IC50 of each compound was determined by calculating approximation lines from three or more points on either side of the IC50 concentration.

Sequence of complex II (succinate:quinone reductase, SQR) (A0A1Z4EAV8 entry or part of it): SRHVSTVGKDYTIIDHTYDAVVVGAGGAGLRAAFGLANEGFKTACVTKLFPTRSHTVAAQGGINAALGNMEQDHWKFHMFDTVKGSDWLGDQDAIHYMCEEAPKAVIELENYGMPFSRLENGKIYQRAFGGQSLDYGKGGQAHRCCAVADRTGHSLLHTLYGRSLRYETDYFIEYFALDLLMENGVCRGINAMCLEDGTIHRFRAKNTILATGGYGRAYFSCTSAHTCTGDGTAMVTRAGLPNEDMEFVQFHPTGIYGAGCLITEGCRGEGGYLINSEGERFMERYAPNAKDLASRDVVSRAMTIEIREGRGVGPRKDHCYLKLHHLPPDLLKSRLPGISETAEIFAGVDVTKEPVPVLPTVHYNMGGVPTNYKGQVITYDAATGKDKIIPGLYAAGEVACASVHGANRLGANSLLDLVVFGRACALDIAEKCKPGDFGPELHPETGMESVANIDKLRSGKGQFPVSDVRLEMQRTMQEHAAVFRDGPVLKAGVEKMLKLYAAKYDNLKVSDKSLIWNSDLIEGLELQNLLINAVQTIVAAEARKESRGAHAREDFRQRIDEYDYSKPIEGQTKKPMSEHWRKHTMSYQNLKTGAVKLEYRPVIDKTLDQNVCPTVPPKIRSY
Sequence of complex II (succinate:quinone reductase, SQR) (A0A1Z4EAX1 entry or part of it): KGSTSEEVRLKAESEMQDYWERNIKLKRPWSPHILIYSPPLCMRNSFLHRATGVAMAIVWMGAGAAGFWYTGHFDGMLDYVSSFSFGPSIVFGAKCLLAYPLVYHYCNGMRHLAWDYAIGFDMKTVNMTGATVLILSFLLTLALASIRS
Sequence of complex II (succinate:quinone reductase, SQR) (A0A1Z4EAX0 entry or part of it): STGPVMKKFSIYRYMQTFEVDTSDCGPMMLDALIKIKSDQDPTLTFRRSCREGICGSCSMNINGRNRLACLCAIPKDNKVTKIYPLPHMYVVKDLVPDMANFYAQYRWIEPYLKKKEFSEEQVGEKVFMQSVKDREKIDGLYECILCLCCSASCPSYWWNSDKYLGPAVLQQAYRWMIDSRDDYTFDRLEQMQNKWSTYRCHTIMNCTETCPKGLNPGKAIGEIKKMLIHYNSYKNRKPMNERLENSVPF
Sequence of complex II (succinate:quinone reductase, SQR) (A0A1Z4EAW8 entry or part of it): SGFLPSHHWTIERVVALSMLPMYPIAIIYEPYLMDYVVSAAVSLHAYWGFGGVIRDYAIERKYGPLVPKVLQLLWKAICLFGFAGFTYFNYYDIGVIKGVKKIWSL

Question: How did the “increase of SQR IC50 compared to D6” value turn out when `CC(C)=CCC/C(C)=C/Cc1c(O)c(Cl)c(C)c(C=O)c1O` [Compound D7] was run?
Answer: 2 fold

same assay, conditions: 4-OH changed to methoxy

Question: Which “SQR inhibitory activity” value does the source give for `COc1c(Cl)c(C)c(C=O)c(O)c1C/C=C(\C)CC/C=C(\C)C1CC(=O)C(C)(C)O1` (stereo not drawn) [Compound D11] here?
Answer: inhibitory activity was lost

same assay, conditions: IC50, E. multilocularis SQR inhibition, Table 5, furanone ring-substituted derivatives; mean ± SEM

Question: For `C/C(=C\CC/C(C)=C/Cc1c(O)c(Cl)c(C)c(C=O)c1O)CO` [Compound D19], which IC50 is on record?
Answer: > 10000 nM

Question: For `C/C(=C\Cc1c(O)c(Cl)c(C)c(C=O)c1O)CC/C=C(\C)COC(=O)C(C)(C)C` [Compound D17], which IC50 is on record?
Answer: 488 ± 15 nM

Question: `C#CCOC/C(C)=C/CC/C(C)=C/Cc1c(O)c(Cl)c(C)c(C=O)c1O` [Compound D16] was tested. Which IC50 did it give?
Answer: 258 ± 72 nM

same assay, conditions: IC50, inhibition of E. multilocularis SQR, Table 2, substitutions on the benzene group; mean ± SEM

Question: Which IC50 does the source give for `CC(=O)c1c(C)c(Cl)c(O)c(C/C=C(\C)CCC=C(C)C)c1O` [Compound D6] here?
Answer: 210 ± 22 nM

Question: How did the IC50 turn out when `COc1c(Cl)c(C)c(C=O)c(O)c1C/C=C(\C)CC/C=C(\C)C1CC(=O)C(C)(C)O1` (stereo not drawn) [Compound D11] was run?
Answer: > 10000 nM

Question: Which IC50 does the source give for `CC(C)=CCC/C(C)=C/Cc1c(O)cc(C)c(C=O)c1O` [Compound D8] here?
Answer: > 10000 nM

Question: `COC(=O)c1c(C)c(Cl)c(O)c(C/C=C(\C)CCC=C(C)C)c1O` [Compound D9] was tested. Which IC50 did it give?
Answer: > 10000 nM

Question: For `C/C(=C\Cc1c(O)c(Cl)cc(C=O)c1O)CC/C=C(\C)C1CC(=O)C(C)(C)O1` (stereo not drawn) [Compound D10], which IC50 is on record?
Answer: 550 ± 130 nM

same assay, conditions: IC50, inhibition of E. multilocularis SQR, Table 4, different linker structures; mean ± SEM

Question: `CC(C)=CCC/C(C)=C/Cc1c(O)c(Cl)c(C)c(C=O)c1O` [Compound D12] was tested. Which IC50 did it give?
Answer: 570 ± 30 nM

Question: For `CCCCCCCCc1c(O)c(Cl)c(C)c(C=O)c1O` [Compound D15], which IC50 is on record?
Answer: 890 ± 110 nM

Question: How did the IC50 turn out when `Cc1c(Cl)c(O)c(CCC(C)CCCC(C)C)c(O)c1C=O` (stereo not drawn) [Compound D13] was run?
Answer: 280 ± 50 nM

Question: Which IC50 does the source give for `CCCCCC(C)CCc1c(O)c(Cl)c(C)c(C=O)c1O` (stereo not drawn) [Compound D14] here?
Answer: 540 nM

same assay, conditions: IC50 against E. multilocularis SQR, Table 3, various side chain lengths; mean ± SEM

Question: With `CCCCCCCC/C=C/c1c(O)c(Cl)c(C)c(C=O)c1O` [Compound C10] as the molecule, how does the IC50 read?
Answer: 1200 ± 80 nM

Question: How did the IC50 turn out when `C/C=C/c1c(O)c(Cl)c(C)c(C=O)c1O` [Compound C3] was run?
Answer: 5400 ± 700 nM

Question: How did the IC50 turn out when `CCC/C=C/c1c(O)c(Cl)c(C)c(C=O)c1O` [Compound C5] was run?
Answer: 3300 ± 270 nM

Question: For `CCCCCCCCCC/C=C/c1c(O)c(Cl)c(C)c(C=O)c1O` [Compound C12], which IC50 is on record?
Answer: 1700 ± 720 nM

Question: With `CCCCCCC/C=C/c1c(O)c(Cl)c(C)c(C=O)c1O` [Compound C9] as the molecule, how does the IC50 read?
Answer: 1200 ± 120 nM

Question: How did the IC50 turn out when `Cc1c(Cl)c(O)cc(O)c1C=O` [Compound C0] was run?
Answer: > 20000 nM

Question: For `CCCCC/C=C/c1c(O)c(Cl)c(C)c(C=O)c1O` [Compound C7], which IC50 is on record?
Answer: 950 ± 270 nM

same assay, conditions: IC50 against E. multilocularis complex II (SQR), figure legends, supplement

Question: Which IC50 does the source give for `C/C(=C\Cc1c(O)c(Cl)c(C)c(C=O)c1O)CC/C=C(\C)COC(=O)C(C)(C)C` [Compound D17] here?
Answer: 480 nM

Question: For `C#CCOC/C(C)=C/CC/C(C)=C/Cc1c(O)c(Cl)c(C)c(C=O)c1O` [Compound D16], which IC50 is on record?
Answer: 250 nM

same assay, conditions: read-out: IC50, E. multilocularis SQR inhibition; Table 5, furanone ring-substituted derivatives; mean ± SEM

Question: For `C/C(=C\Cc1c(O)c(Cl)c(C)c(C=O)c1O)CC/C=C(\C)C(C)O` (stereo not drawn) [Compound D18], which IC50 is on record?
Answer: 3770 ± 980 nM
